Laboratory results taken from patent publication US9757455B2, “Oral therapeutic compound delivery system” (Johnson & Johnson Consumer Inc., priority 2005, dated 2017).
≈ marks a conversion by molar mass, not a printed value. Where a name gives a salt, the structure may show the parent alone. Read-outs that look alike come from different tables or passages of the source.

How the values were obtained:
[1] = Dissolution, USP dissolution apparatus 2, 900 mL 0.0033 N hydrochloric acid, 30 rpm, 37° C.; type: physicochemical; conditions: basic and amphoteric drugs in formulations according to the invention (Table 32)
Description: (§1) Testing was conducted in a dissolution medium containing 900 mL 0.0033 N hydrochloric acid (HCl) at 37° C. which discriminates better between fast dissolving formulations than more acidic dissolution media where the effect of high acid concentration tends to mask formulation effects on dissolution. 900 mL of this medium contains the absolute amount of acid estimated to be present in the gastric contents in vivo, namely 3 millimoles.
(§2) Testing at was conducted at a stirring speed of 30 rpm and also at 0 rpm which provides more discrimination between formulations. To achieve maximum dissolution, the stirring speed was increased to 250 rpm for 10 minutes after 20 minutes for measurements at 30 rpm, and after 60 minutes for measurements at 0 rpm.
(§3) Unless otherwise stated, drug concentrations were measured using a Varian Cary 50 UV-Vis Spectrophotometer set at an appropriate wavelength using flow through cells for automatic continuous sampling. For each drug, the optimal wavelength was selected after running UV scans in the dissolution medium.
A suitable C18 column and guard column were used. Results were processed using Waters Empower software.

[2] = Dissolution, USP dissolution apparatus 2, 900 mL 0.0033 N hydrochloric acid, 0 rpm, 37° C.; type: physicochemical; conditions: basic and amphoteric drugs in formulations according to the invention (Table 32), 0 rpm
Description: as §1
Dissolution results without stirring may be of in vivo significance in conditions where there is gut stasis or reduced gastric activity.
as §2, §3

[3] = physchem
[4] = Solubility in water
[5] = Effect of different alkaline agents on paracetamol absorption in vivo (5 subject crossover studies, plasma paracetamol); conditions: human, oral, 1000 mg, two tablets each 500 mg paracetamol, fasted, read-out: Median AUC20 (converted)
Description: In a series of multiple 5 subject crossover studies, the effect of a range of different formulations containing different alkali agents on in vivo absorption were investigated. Subjects were fasted overnight and dosed with two tablets each containing 500 mg paracetamol. Plasma levels of paracetamol were monitored for 8 hours, with 10 samples taken in the first hour.

COc1cccc(C2(O)CCCCC2CN(C)C)c1 (centres unmarked) [Tramadol hydrochloride]
% dissolved in 900 mL 0.0033 N HCl ([1]; 180 sec, 30 rpm): 100%
% dissolved in 900 mL 0.0033 N HCl ([1]; 300 sec, 30 rpm): 100%
% dissolved in 900 mL 0.0033 N HCl ([1]; 15 minutes, 30 rpm): 100%
% dissolved in 900 mL 0.0033 N HCl ([1]; 30 minutes, 30 rpm (increased to 250 rpm after 20 minutes)): 100%
% dissolved in 900 mL 0.0033 N HCl ([2]; 180 sec): 87%
% dissolved in 900 mL 0.0033 N HCl ([2]; 300 sec): 95%
% dissolved in 900 mL 0.0033 N HCl ([2]; 15 minutes): 99%
% dissolved in 900 mL 0.0033 N HCl ([2]; 30 minutes): 100%
solubility [3]: ~30 mg/mL
solubility ([3]; water): ~30 mg/mL
Volume (mL) of water to dissolve dose [4]: 1.3 mL
water needed for total dissolution of the dose [4]: around 1 mL

CC(=O)Nc1ccc(O)cc1 [Paracetamol]
AUC ([5]; Magnesium carbonate, dose 150 mg): 1140 ng·h/mL
AUC ([5]; Magnesium carbonate, dose 300 mg): 2010 ng·h/mL
AUC ([5]; Sodium bicarbonate, dose 200 mg): 3810 ng·h/mL
AUC ([5]; Sodium bicarbonate, dose 400 mg): 4760 ng·h/mL
AUC ([5]; Sodium bicarbonate, dose 800 mg): 4400 ng·h/mL
AUC ([5]; Sodium bicarbonate, dose 1200 mg): 2680 ng·h/mL
AUC ([5]; alkaline agent None, dose 0 mg): 1590 ng·h/mL
Effect of ↑ pH on solubility [4]: ⇄
Volume of water (mL) to dissolve dose ([4]; dose per tablet as in label): 36 mL
water needed for total dissolution of the dose ([4]; doses of Example 33 (tramadol hydrochloride 37.5 mg, paracetamol 325 mg)): around 27 mL
solubility ([4]; water): ~14 mg/mL (≈ 92.6 mM)
